The text below walks through data of US10077258B2, “Substituted pyrimidine compounds as phosphatidylinositol 3-kinase delta inhibitor and use thereof” (NANJING SANHOME PHARMACEUTICAL CO., LTD., priority 2015, dated 2018).

The test system of one assay is SU-DHL-5 lymphoma cells. The assay can be described thus: In vitro cell activity, CellTiter-Glo cell viability, SU-DHL-5. Type of assay: cell-based. Conditions: Homo sapiens, SU-DHL-5 lymphoma cell line, 72 h. The method, then: (§1) Compounds: the compounds prepared in above examples of the present invention, each of which was prepared to a concentration of 10 mM in DMSO and diluted 3 times to 20000.00 nM, 6666.67 nM, 2222.22 nM, 740.74 nM, 246.91 nM, 27.43 nM, 9.14 nM, 3.05 nM successively.
(§2) The lymphoma cell lines SU-DHL-5 and SU-DHL-6 were purchased from the American Type Culture Collection (ATCC).
(§3) Reagents: PRMI-1640, purchased from Invitrogen (USA); FBS, purchased from Invitrogen (USA); EDTA, purchased from Sigma (USA); CellTiter-Glo® Luminescent Cell Viability Assay Kit, purchased from Progema (USA); Backseal membrane, purchased from Perkin Elmer (USA).
(§4) The cells were thawed in a 37° C. water bath and then transferred to 15 ml preheated medium. The cells were centrifuged at 1000 rpm for 5 min and the medium was discarded. The cells were resuspended in 15 ml fresh medium and transferred to T75 culture flask and incubated in an incubator at 37° C. with 5% CO2. The medium was replaced with fresh medium 24 h later.
(§5) The resuscitated cells above were transferred to a 50 ml sterile centrifuge tube and centrifuged at 1000 rpm for 5 min. The medium was discarded, and the cells were dispersed uniformly and counted. The appropriate cell concentration was adjusted in 15 ml fresh medium and added to T75 culture flask. The flask was incubated in an incubator at 37° C. with 5% CO2.
When the cells in the T75 culture flask grew to 1×10^5˜1×10^6 cells/ml, the cells were resuspended with fresh medium (RPMI-1640+20% FBS) and counted. The resuspended cells were adjusted to the following eight concentrations: 1×10^4 cells/ml, 2×10^4 cells/ml, 3×10^4 cells/ml, 5×10^4 cells/ml, 8×10^4 cells/ml, 1×10^5 cells/ml, 1.5×10^5 cells/ml, and 2×10^5 cells/ml. The above cell suspensions were added to 96-well cell culture plate, 100 μl each well (1×10^3 cells/ml, 2×10^3 cells/ml, 3×10^3 cells/ml, 5×10^3 cells/ml, 8×10^3 cells/ml, 1×10^4 cells/ml, 1.5×10^4 cells/ml, and 2×10^4 cells/ml, respectively). Each concentration was done double in three plates. 72 h later, 100 μl CellTiter-Glo® Luminescent Cell Viability Assay buffer was added to test wells and shaken gently. 10 min later, the Assay plate was attached at the bottom by Backseal membrane and placed on Envison to detect the fluorescence reading. Cell survive (%) was calculated according to the formula: cell survive (%)=(Com−Min)/(Max−Min), wherein Max was the reading of solvent control group, Min was the reading of control group without cells, and Com was the reading of compound treatment group.

A further assay deals with T1, PI3Kγ (Homo sapiens, UniProt P48736).
T1 construct: purchased Invitrogen PR8641C
Briefly: In vitro kinase activity (LabChip EZ Reader mobility shift), PI3Kγ. Conditions: kinase subtype PI3Kγ (p110γ). In kind it is biochemical. The protocol:
(§6) Compounds: the compounds prepared in above examples of the present invention, each of which was prepared to a concentration of 10 mM in DMSO and diluted to […], 100 nM, 10 nM, 1 nM, 0.1 nM, 0.01 nM successively.
(§7) Reagents: PI3Kα (p110α(p85a), purchased from Invitrogen, Cat.No. PV4788; PIK3Cδ (p110δ/p85a), purchased from Millipore, Cat.No. 14-604-K; PIK3Cβ (p110β), purchased from Millipore, Cat.No. 14-603-K; PIK3Cγ (pp110γ), purchased from Invitrogen, Cat.No. PR8641C; DMSO, purchased from Sigma; EDTA, purchased from Sigma; 1× kinase buffer (50 mM HEPES, pH 7.5, 0.0015% Brij-35, 10 mM MgCl2, 2 mM DTT), which was prepared before use; termination solution (100 mM HEPES, pH 7.5, 0.015% Brij-35, 0.2% Coating Reagent#3, 50 mM EDTA), which was prepared before use.
(§8) Instruments: LabChip EZ Reader purchased from Caliper, USA.
(§9) 2.1 10 μl solution of each concentration of each compound was placed into 96-well plate and 90 μl of 1× kinase buffer was added. DMSO control group and control group without kinase activity were set up, which all contained 10 μl DMSO and 90 μl of 1× kinase buffer. Each group was mixed well at room temperature for 10 min, and then 5 μl of each group was transferred to a 384-well plate.
(§10) 2.2 Kinases were dissolved in 1× kinase buffer to prepare a 2.5× kinase solution. 10 μl of 2.5× kinase solution was transferred to the 384-well plate containing compounds of different concentrations. 10 μl of 2.5× kinase solution was added to DMSO control group and 10 μl of 1× kinase buffer without kinase was added to control group without kinase activity. The plate was incubated at room temperature for 10 min.
(§11) 2.3 ATP and the polypeptide labeled with FAM were dissolved in 1× kinase buffer to prepare 2.5× substrate solution. Then 10 μl of 2.5× substrate solution was transferred to the 384-well plate and incubated at 28° C. for 1 h.
(§12) 2.4 25 μl of termination solution was added to each well to terminate the reaction.
(§13) 2.5 The plate was placed on the LabChip EZ Reader to read the data of conversion rate and inhibitory rate (1%) was calculated according to formula: I %=(Max−Com)/(Max−Min)×100, wherein Max was the conversion rate of DMSO control group, Min was the conversion rate of control group without kinase activity, Com was the conversion rate of compound treatment group. IC50 was fitted by XLfit processing of the data.

The next assay concerns the target T2, PI3Kβ (Homo sapiens, UniProt P42338).
T2 construct: purchased Millipore 14-603-K
Briefly: In vitro kinase activity (LabChip EZ Reader mobility shift), PI3Kβ. In kind it is biochemical. Conditions: kinase subtype PI3Kβ (p110β). The protocol: as §6, §7, §8, §9, §10, §11, §12, §13

The subject of another assay is SU-DHL-6 lymphoma cells. The assay can be described thus: In vitro cell activity, CellTiter-Glo cell viability, SU-DHL-6. Type of assay: cell-based. Conditions: Homo sapiens, SU-DHL-6 lymphoma cell line, 72 h. The method, then: as §1, §2, §3, §4, §5
When the cells in the T75 culture flask grew to 1×10^5˜1×10^6 cells/ml, the cells were resuspended with fresh medium (RPMI-1640+20% FBS) and counted. […] 10 min later, the Assay plate was attached at the bottom by Backseal membrane and placed on Envison to detect the fluorescence reading. Cell survive (%) was calculated according to the formula: cell survive (%)=(Com−Min)/(Max−Min), wherein Max was the reading of solvent control group, Min was the reading of control group without cells, and Com was the reading of compound treatment group.

In another assay the target is T3, PI3Kδ (Homo sapiens, UniProt O00329).
T3 construct: purchased Millipore 14-604-K
The assay can be described thus: In vitro kinase activity (LabChip EZ Reader mobility shift), PI3Kδ. In kind it is biochemical. To be noted: kinase subtype PI3Kδ (p110δ/p85a). The protocol:
as §6, §7, §8, §9, §10, §11, §12, §13

A further assay has as its target T4, PI3Kα (Homo sapiens, UniProt P42336).
T4 construct: purchased Invitrogen PV4788
Briefly: In vitro kinase activity (LabChip EZ Reader mobility shift), PI3Kα. To be noted: kinase subtype PI3Kα (p110α/p85a). Type of assay: biochemical. The method, then: as §6, §7, §8, §9, §10, §11, §12, §13

Molecules are shown by their SMILES.

T4 sequence (P42336 whole entry): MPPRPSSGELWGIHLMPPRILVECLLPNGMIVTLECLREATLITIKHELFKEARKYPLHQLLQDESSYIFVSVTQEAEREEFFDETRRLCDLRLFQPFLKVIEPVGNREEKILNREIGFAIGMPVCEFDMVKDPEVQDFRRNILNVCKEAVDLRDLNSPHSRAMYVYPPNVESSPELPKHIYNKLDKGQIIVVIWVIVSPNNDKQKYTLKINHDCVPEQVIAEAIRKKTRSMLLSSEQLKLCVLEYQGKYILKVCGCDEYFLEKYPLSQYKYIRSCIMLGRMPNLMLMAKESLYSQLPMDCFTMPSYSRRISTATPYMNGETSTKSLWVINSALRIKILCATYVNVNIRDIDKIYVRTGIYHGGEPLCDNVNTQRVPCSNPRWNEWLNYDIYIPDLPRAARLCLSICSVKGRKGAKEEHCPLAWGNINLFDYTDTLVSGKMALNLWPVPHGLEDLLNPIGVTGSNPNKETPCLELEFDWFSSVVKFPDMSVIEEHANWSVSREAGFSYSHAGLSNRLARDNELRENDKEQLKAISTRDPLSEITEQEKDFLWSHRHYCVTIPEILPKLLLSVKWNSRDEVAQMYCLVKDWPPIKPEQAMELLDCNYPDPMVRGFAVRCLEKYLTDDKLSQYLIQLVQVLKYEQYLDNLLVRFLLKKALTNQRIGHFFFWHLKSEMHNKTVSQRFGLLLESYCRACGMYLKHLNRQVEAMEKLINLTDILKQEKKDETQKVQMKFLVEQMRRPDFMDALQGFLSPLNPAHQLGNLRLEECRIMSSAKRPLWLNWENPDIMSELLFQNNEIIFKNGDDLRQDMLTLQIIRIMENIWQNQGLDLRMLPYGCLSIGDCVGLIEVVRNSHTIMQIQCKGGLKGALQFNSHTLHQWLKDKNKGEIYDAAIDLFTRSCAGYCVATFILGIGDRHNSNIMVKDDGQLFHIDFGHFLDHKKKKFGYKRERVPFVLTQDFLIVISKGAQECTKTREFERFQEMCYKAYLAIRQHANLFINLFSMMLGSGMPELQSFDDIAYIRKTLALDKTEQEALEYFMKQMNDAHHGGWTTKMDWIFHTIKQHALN
T4 sequence (P27986 whole entry partner): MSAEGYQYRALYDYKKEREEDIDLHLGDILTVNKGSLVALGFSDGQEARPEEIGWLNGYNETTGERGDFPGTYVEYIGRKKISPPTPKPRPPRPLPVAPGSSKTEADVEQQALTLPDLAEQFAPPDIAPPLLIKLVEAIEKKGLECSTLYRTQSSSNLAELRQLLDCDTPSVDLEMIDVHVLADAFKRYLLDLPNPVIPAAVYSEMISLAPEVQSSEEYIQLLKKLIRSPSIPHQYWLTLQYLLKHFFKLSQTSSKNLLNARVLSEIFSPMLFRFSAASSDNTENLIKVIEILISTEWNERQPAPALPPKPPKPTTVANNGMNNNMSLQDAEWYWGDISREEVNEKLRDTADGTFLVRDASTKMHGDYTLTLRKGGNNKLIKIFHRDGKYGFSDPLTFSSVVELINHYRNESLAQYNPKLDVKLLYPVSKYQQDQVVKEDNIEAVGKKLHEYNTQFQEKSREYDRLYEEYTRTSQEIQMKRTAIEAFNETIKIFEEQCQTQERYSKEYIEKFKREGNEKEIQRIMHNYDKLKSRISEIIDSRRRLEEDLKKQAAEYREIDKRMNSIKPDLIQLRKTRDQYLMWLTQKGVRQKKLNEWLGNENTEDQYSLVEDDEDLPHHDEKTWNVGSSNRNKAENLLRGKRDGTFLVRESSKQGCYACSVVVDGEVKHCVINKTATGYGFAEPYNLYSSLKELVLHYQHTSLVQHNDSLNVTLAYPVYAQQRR
T3 sequence (O00329 whole entry): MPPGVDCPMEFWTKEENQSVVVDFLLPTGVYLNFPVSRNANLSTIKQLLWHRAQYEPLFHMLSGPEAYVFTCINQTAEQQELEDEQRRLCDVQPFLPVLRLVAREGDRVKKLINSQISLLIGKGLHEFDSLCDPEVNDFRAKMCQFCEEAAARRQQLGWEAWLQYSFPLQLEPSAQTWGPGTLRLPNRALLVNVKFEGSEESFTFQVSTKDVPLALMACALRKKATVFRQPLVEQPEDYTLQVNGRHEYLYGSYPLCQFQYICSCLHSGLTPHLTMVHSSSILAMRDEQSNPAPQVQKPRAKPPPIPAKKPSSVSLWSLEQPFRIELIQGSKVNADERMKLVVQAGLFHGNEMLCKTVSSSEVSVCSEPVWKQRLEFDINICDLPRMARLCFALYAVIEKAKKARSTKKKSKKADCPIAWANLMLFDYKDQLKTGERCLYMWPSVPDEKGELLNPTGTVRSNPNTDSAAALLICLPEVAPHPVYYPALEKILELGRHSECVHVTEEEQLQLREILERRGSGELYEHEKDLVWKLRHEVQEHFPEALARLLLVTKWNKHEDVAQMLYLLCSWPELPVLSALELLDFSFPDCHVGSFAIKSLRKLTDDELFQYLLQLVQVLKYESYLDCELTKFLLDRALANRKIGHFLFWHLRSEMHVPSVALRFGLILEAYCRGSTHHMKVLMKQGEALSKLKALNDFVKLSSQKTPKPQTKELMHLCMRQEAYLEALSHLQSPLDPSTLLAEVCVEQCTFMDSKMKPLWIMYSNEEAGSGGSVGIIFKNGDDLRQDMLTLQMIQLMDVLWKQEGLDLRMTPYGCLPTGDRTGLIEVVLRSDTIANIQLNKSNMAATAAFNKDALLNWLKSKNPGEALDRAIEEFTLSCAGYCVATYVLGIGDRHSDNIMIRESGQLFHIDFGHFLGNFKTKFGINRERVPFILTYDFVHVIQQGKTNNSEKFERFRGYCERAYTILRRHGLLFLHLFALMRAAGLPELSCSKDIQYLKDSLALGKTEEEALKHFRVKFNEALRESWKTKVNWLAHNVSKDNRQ
T3 sequence (P27986 whole entry partner): as the sequence (P27986 whole entry partner) above
T1 sequence (P48736 whole entry): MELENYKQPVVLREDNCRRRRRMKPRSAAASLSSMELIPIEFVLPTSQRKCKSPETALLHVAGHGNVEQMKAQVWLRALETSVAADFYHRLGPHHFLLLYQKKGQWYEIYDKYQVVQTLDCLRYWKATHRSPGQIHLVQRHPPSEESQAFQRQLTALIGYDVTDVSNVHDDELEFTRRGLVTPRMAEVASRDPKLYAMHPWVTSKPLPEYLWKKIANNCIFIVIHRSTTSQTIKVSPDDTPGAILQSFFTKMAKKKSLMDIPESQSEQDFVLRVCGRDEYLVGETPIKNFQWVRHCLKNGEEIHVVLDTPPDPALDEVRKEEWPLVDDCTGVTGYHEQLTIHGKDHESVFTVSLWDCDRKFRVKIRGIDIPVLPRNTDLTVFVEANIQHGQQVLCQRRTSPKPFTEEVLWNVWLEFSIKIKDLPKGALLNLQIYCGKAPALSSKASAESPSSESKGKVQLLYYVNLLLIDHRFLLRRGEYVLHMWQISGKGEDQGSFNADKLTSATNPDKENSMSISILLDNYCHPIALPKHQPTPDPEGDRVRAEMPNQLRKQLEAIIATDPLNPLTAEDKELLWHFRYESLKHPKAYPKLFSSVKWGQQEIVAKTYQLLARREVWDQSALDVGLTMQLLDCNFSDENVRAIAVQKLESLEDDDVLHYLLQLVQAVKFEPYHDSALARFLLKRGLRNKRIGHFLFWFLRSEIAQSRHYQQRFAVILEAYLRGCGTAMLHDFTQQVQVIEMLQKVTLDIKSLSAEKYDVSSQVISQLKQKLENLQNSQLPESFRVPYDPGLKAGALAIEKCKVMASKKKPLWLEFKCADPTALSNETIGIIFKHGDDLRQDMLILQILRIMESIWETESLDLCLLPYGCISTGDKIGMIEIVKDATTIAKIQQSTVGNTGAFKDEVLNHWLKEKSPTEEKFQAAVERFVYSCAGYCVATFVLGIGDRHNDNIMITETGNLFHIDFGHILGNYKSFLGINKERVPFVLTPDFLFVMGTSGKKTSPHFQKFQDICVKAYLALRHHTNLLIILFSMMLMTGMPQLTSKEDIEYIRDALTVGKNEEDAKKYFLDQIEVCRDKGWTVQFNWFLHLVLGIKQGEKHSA
T2 sequence (P42338 whole entry): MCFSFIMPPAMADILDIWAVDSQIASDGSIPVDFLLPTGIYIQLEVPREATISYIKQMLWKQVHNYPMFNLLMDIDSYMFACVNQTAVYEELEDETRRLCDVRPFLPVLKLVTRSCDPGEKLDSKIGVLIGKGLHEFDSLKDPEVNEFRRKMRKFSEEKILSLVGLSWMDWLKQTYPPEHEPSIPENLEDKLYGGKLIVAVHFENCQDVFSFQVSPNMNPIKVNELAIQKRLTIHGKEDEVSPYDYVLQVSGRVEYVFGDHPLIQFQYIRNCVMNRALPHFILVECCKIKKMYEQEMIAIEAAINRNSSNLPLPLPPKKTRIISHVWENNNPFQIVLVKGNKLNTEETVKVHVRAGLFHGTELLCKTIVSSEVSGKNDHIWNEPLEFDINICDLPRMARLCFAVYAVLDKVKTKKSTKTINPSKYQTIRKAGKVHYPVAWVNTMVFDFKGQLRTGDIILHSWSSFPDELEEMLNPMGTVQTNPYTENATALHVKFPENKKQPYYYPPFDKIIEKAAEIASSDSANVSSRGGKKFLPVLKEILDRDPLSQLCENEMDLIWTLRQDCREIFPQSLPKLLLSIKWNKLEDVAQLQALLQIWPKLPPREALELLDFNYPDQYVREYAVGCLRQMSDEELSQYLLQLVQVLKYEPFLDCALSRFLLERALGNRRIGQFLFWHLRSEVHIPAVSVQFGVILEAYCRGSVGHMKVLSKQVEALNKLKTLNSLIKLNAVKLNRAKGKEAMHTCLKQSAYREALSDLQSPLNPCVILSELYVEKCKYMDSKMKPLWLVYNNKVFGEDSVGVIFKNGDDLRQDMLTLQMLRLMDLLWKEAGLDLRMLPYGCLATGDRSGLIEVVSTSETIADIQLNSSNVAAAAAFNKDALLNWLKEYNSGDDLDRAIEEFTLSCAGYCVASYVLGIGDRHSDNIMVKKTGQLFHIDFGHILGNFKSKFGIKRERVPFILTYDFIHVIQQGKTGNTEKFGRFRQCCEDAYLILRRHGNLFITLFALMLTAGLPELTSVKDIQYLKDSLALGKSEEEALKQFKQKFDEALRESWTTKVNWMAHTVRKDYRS
T2 sequence (P27986 whole entry partner): as the sequence (P27986 whole entry partner) above

In the case of `CC(Nc1ncnc(N)c1C#N)c1c(-c2ccccc2)[nH]c2ccccc2c1=O` (stereo not shown) [Example 10, 4-Amino-5-cyano-6-((1-(4-oxo-2-phenyl-1,4-dihydroquinolin-3-yl)ethyl)amino) pyrimidine], the IC50 turned out to be 0.81 µM in the assay with SU-DHL-5 lymphoma cells; 441 nM on PI3Kγ; 569 nM at PI3Kβ; 0.04 µM with SU-DHL-6 lymphoma cells; 4.4 nM at PI3Kδ; 1070 nM on PI3Kα.

Take `N#Cc1c(N)ncnc1NCc1c(-c2ccccc2)[nH]c2c(Cl)cccc2c1=O` [Example 14, 4-Amino-5-cyano-6-(((8-chloro-4-oxo-2-phenyl-1,4-dihydroquinolin-3-yl)methyl)amino)pyrimidine]: the concentration for half-maximal inhibition (IC50) with SU-DHL-5 lymphoma cells is 4.63 µM; on PI3Kγ, 905 nM; on PI3Kβ, 546 nM; in the assay on SU-DHL-6 lymphoma cells, 0.16 µM; at PI3Kδ it was 3.2 nM; on PI3Kα, above 1000 nM.

Turning to `CC(Nc1ncnc(N)c1C#N)c1c(-c2ccccc2)[nH]c2c(Cl)cccc2c1=O` (stereo not shown) [Example 9, 4-Amino-5-cyano-6-((1-(8-chloro-4-oxo-2-phenyl-1,4-dihydroquinolin-3-yl)ethyl)amino)pyrimidine], the IC50 in the assay on SU-DHL-5 lymphoma cells came to 0.58 µM; on PI3Kγ, 66 nM; on PI3Kβ, 139 nM; on PI3Kδ, 3.8 nM; at PI3Kα it was 219 nM.

As to `CC(Nc1nc(N)nc(N)c1C#N)c1c(-c2ccccc2)oc2ccccc2c1=O` (stereo not shown) [Example 4, 2,4-Diamino-5-cyano-6-(1-(4-oxo-2-phenyl-4H-chromen-3-yl)ethylamino) pyrimidine], the IC50 with SU-DHL-5 lymphoma cells is 1.41 µM; on PI3Kγ, 83 nM; on PI3Kβ, 546 nM; with SU-DHL-6 lymphoma cells, 0.014 µM; at PI3Kδ, 9.2 nM; at PI3Kα, above 1000 nM.

As for `CC(Nc1ncnc(N)c1C#N)c1c(-c2ccccc2)oc2ccccc2c1=O` (stereo not shown) [Example 3, 4-Amino-5-cyano-6-(1-(4-oxo-2-phenyl-4H-chromen-3-yl)ethylamino) pyrimidine], the IC50 is 0.86 µM in the assay on SU-DHL-5 lymphoma cells; above 1000 nM on PI3Kγ; above 1000 nM on PI3Kβ; 17 nM at PI3Kδ; above 1000 nM on PI3Kα.
